{"source": "ChEMBL document CHEMBL1201862", "about": "“PubChem BioAssay data set” (2004)", "key": {"Prothrombin": {"target": "Prothrombin (Homo sapiens, UniProt P00734)", "test": "Thrombin 1536 HTS Dose Response Confirmation. [Related pubchem assays: 1046 (Thrombin 1536 HTS; hits were confirmed in this assay)]", "assay_type": "functional"}, "Protein Tat": {"target": "T1, Protein Tat (Human immunodeficiency virus type 1 group M subtype B (isolate HXB2)(HIV-1), UniProt P04608)", "T1 sequence (P04608 whole entry)": "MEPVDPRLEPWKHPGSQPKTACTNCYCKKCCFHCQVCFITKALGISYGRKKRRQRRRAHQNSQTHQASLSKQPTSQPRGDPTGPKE", "assay_type": "functional"}, "[1]": {"target": "T2, Mannose-6-phosphate isomerase (Homo sapiens, UniProt P34949)", "T2 sequence (P34949 whole entry)": "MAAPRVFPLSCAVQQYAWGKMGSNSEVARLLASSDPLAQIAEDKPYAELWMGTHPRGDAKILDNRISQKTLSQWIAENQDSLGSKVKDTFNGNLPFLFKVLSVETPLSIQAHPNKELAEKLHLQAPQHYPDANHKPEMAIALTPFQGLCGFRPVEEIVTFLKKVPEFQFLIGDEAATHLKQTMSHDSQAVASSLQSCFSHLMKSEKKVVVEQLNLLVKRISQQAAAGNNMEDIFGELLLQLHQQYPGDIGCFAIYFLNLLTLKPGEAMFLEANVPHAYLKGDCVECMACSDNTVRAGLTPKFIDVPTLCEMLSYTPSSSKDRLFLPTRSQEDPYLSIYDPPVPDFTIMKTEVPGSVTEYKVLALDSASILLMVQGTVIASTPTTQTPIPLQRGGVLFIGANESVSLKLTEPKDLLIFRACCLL", "test": "MPI inhibition at elevated mannose 6-phosphate – biochemical, fluorescence intensity, high mannose 6-phosphate, primary screen (AID 1220)"}, "Cytochrome P450 2C19": {"target": "Cytochrome P450 2C19 (Homo sapiens, UniProt P33261)", "sequence (P33261 whole entry)": "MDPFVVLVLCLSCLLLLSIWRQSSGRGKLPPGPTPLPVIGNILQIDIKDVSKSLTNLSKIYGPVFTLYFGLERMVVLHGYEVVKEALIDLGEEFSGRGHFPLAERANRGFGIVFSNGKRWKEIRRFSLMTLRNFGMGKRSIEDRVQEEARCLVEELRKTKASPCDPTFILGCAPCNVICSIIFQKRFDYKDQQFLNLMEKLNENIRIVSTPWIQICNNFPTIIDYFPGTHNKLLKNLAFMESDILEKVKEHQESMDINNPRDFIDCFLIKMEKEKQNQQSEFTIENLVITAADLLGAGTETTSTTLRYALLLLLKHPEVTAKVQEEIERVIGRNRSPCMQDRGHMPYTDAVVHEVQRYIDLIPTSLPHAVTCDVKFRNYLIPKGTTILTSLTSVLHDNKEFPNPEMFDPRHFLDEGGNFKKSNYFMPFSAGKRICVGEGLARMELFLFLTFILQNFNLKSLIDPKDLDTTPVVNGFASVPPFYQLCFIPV", "test": "qHTS Assay for Inhibitors and Substrates of Cytochrome P450 2C19. [Related pubchem assays: 410 ]", "assay_type": "ADME", "conditions": "read-out: Potency"}, "[2]": {"target": "Aryl hydrocarbon receptor (Homo sapiens, UniProt P35869)", "sequence (P35869 whole entry)": "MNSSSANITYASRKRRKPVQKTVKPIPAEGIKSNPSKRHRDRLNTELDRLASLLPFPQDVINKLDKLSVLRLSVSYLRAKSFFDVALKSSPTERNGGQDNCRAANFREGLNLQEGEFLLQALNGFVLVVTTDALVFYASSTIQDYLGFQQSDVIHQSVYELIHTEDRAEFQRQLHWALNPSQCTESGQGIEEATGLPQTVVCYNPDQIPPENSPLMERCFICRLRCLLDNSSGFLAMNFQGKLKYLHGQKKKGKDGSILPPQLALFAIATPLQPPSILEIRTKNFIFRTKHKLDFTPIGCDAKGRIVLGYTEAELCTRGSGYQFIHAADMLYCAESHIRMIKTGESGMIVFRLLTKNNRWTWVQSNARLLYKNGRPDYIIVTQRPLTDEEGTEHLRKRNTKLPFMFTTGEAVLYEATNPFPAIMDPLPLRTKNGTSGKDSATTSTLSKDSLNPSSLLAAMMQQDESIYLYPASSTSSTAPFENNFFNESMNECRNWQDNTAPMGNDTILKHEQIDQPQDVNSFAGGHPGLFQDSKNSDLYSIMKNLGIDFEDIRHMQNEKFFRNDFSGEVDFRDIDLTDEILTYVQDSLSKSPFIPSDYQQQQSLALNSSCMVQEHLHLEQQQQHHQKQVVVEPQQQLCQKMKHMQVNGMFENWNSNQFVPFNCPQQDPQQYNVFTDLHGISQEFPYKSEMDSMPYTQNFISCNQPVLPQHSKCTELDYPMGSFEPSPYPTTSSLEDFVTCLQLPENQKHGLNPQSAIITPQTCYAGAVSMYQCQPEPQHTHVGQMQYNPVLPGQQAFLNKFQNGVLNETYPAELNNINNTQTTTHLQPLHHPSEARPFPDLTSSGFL", "test": "Luminescence-based cell-based high throughput dose response assay for activators of the Aryl Hydrocarbon Receptor (AHR). [Related pubchem assays: 2796 (Primary screen (AHR activators in singlicate)), 2845 (Confirmation screen (AHR activators in triplicate)), 434939 (Counterscreen (PXR activators in triplicate)), 2804 (Summary (AHR activators))]", "assay_type": "ADME"}, "[3]": {"test_system": "Streptococcus sp. 'group A'", "test": "Streptococcus pyogenes SK(-)GAS viability under kanamycin – luminescence, BacTiterGlo, confirmation, counter-screen for streptokinase expression inhibitor project, dose response (AID 1900)", "assay_type": "functional, organism-based"}, "[4]": {"test": "Trypanosoma cruzi growth suppression in host cells – NIH3T3 host cells, beta-gal luminescence, confirmation (AID 2044);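 also: intracellular parasites grown in NIH/3T3 mouse fibroblasts as host cells; luminescent beta-galactosidase reporter signal from transgenic T. cruzi replicating inside host cells; inhibitors lower the luminescence signal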", "assay_type": "functional, cell-based"}, "Streptococcus": {"test_system": "Streptococcus", "test": "GAS UMAA2166 growth inhibition – luminescence, BacTiterGlo, counter-screen for streptokinase expression inhibitor project, dose response (AID 1915);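 also: potency for reduction of bacterial viability or growth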", "assay_type": "functional, organism-based"}, "[5]": {"test": "NIH3T3 cell viability loss – ATP luminescence, mouse fibroblasts, counter-screen, dose response (AID 2010);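 also: cells exposed to compound for about 90 hours before reading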", "assay_type": "functional, cell-based"}, "[6]": {"target": "T3, High affinity choline transporter 1 (Homo sapiens, UniProt Q9GZV3)", "T3 sequence (Q9GZV3 whole entry)": "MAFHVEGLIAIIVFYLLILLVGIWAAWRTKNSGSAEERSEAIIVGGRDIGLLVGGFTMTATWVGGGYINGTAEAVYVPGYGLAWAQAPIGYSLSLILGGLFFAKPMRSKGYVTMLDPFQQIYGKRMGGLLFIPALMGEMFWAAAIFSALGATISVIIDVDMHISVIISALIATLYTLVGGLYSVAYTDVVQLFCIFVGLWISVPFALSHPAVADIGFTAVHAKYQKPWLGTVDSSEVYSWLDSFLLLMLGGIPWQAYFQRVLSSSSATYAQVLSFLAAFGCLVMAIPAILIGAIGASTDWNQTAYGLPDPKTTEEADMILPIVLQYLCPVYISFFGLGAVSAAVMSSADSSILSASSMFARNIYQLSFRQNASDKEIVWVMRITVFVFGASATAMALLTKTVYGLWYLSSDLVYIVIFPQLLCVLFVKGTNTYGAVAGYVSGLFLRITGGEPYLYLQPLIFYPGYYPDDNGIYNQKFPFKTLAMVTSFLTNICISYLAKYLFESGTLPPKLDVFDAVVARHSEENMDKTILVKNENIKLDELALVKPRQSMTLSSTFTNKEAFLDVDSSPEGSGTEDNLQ", "test": "human choline transporter blockers, potency – cell-based, 5-point CRC, membrane potential dye, dose response (AID 504840)", "assay_type": "functional"}, "[7]": {"target": "E3 ubiquitin-protein ligase Mdm2 (Homo sapiens, UniProt Q00987)", "sequence (Q00987 whole entry)": "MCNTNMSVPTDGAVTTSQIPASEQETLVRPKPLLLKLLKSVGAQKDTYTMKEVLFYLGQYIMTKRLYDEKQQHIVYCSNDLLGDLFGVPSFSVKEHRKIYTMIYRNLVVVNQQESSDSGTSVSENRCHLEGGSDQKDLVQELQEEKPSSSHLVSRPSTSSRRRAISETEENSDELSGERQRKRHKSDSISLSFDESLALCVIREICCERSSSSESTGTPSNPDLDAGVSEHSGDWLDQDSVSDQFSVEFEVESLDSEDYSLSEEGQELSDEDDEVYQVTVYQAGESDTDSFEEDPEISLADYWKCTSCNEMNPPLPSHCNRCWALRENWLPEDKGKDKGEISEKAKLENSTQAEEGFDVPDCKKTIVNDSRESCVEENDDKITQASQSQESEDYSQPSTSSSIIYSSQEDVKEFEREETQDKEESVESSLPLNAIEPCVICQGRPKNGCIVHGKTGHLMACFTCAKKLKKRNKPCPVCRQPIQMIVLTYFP", "test": "MDM2-luc reporter signal enhancers, multi-concentration potency testing, MDM2 ubiquitin-protein ligase inhibitor program, whole-cell format, luminescence detection, 384-well microplate (AID 1394);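 also: MDM2 E3 inhibitors raise luminescence so EC50 is for signal enhancement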", "assay_type": "functional"}, "X-box-binding protein 1": {"target": "X-box-binding protein 1 (Homo sapiens, UniProt P17861)", "sequence (P17861 whole entry)": "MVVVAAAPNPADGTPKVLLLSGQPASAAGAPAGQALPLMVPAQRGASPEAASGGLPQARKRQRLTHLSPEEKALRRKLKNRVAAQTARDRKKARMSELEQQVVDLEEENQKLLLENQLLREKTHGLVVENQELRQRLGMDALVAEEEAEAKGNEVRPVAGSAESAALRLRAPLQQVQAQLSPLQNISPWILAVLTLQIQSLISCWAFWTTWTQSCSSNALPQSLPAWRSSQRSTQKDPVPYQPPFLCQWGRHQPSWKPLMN", "assay_type": "functional, Cricetulus griseus"}, "[8]": {"target": "T4, Tyrosine-protein phosphatase non-receptor type 7 (Homo sapiens, UniProt P35236)", "T4 sequence (P35236 whole entry)": "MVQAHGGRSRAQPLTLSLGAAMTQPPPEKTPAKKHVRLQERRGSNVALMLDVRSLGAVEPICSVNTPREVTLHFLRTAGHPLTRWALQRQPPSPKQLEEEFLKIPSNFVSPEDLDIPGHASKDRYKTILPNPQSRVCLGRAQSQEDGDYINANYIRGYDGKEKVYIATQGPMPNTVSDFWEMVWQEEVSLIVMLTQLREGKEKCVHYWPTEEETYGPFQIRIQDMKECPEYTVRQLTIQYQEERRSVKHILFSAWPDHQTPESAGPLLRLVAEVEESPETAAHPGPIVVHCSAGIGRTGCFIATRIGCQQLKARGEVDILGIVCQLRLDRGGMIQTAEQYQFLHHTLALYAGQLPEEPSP", "test": "HePTP tyrosine phosphatase activity blockers – biochemical, absorbance, leukemia target, primary screen (AID 521)", "assay_type": "functional"}, "Ephrin type-A receptor 4": {"target": "Ephrin type-A receptor 4 (Mus musculus, UniProt Q03137)", "sequence (Q03137 whole entry)": "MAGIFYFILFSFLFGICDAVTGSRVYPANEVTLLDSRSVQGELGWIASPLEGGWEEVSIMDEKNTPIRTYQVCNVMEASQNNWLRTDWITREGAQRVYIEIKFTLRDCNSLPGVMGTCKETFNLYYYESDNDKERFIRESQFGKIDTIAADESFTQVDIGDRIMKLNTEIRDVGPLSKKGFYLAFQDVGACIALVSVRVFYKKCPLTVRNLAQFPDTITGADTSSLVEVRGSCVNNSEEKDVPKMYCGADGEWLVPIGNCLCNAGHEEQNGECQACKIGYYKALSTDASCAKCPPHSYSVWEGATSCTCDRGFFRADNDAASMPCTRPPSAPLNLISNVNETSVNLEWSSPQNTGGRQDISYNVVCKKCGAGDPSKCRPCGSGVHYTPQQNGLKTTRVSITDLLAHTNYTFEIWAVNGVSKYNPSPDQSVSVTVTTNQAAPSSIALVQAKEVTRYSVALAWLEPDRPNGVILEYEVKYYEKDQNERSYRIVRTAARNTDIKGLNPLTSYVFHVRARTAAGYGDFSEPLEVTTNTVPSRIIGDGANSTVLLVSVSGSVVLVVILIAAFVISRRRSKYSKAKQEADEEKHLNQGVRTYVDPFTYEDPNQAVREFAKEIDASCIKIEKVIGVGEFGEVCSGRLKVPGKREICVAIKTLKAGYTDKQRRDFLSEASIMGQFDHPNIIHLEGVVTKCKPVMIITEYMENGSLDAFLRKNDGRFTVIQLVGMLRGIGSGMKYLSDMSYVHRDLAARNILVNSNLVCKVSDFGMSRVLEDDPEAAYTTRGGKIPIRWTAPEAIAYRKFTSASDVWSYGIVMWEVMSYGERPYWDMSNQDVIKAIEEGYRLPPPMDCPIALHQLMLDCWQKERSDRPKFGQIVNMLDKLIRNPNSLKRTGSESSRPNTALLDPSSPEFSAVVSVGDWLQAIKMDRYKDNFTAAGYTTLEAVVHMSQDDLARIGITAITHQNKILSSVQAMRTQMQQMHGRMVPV", "test": "EphA4 ligand-binding antagonists – biochemical, colorimetric, mouse EphA4, primary screen (AID 689)", "assay_type": "functional"}}, "note": "Calls of active or inactive are those of the source.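 For Absolute IC50 (XBP1) in this document: confirmatory dose-response counter-screen serving a CHOP assay.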", "data": [{"smiles": "Nc1cccc2c1=NC1(CCCCC1)[N+]=2[O-]", "values": [{"measurement": "IC50", "setting": "Prothrombin", "result": "> 50 µM (not active)"}, {"measurement": "IC50", "setting": "Protein Tat", "result": "> 100 µM (inconclusive)"}, {"measurement": "IC50", "setting": "[1]", "result": "> 50 µM (not active)"}]}, {"smiles": "COC(=O)NC(c1cccc(F)c1)[C@]1(C(C)=O)CCCC1=O", "note": "(some centres undefined)", "values": [{"measurement": "AC50", "setting": "Cytochrome P450 2C19", "result": "2.51 µM (inconclusive)"}]}, {"smiles": "CCOCCc1nnc(NC(=O)c2ccc(OC)c(OC)c2)s1", "values": [{"measurement": "EC50", "setting": "[2]", "result": "6.13 µM (active)"}]}, {"smiles": "CC(C)c1ccc2c(c1)C1(NN=C(c3ccccc3)S1)C(=O)N2", "note": "(centres undefined)", "values": [{"measurement": "EC50", "setting": "[3]", "result": "< 60 nM (active)"}, {"measurement": "EC50", "setting": "[4]", "result": "333 nM (active)"}, {"measurement": "EC50", "setting": "Streptococcus", "result": "2.81 µM (active)"}, {"measurement": "EC50", "setting": "[5]", "result": "6.8 µM (active)"}, {"measurement": "IC50", "setting": "[6]", "result": "12.6 µM (active)"}, {"measurement": "EC50", "setting": "[7]", "result": "1.42 µM (active)"}, {"measurement": "Absolute IC50 (XBP1)", "setting": "X-box-binding protein 1", "result": 10, "unit": "µM"}]}, {"smiles": "O=C(Nc1ccccc1)c1ccc(NCC2CCCO2)c(S(=O)(=O)N2CCOCC2)c1", "note": "(centres undefined)", "values": [{"measurement": "IC50", "setting": "[8]", "result": "> 100 µM (not active)"}]}, {"smiles": "O=C(CCN1C(=O)/C(=C/C=C/c2ccccc2)SC1=S)Nc1nccs1", "values": [{"measurement": "IC50", "setting": "Ephrin type-A receptor 4", "result": "> 100 µM (not active)"}]}]}
